Assays:
[1] = target: KRas(G12V) (Homo sapiens (Human), UniProt P01116, G12V); assay: KRas(G12V) GDP HTRF (BODIPY-GDP exchange TR-FRET); format: biochemical
[2] = target: KRas (Homo sapiens (Human), UniProt P01116); assay: KRas GDP HTRF (BODIPY-GDP exchange TR-FRET); format: biochemical
In short: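 Inhibition of SOS1-mediated exchange of BODIPY-GDP on KRAS G12D, started with 3 nM recombinant human SOS1 and 300 nM BODIPY-GDP and read after 60 min. TR-FRET excitation 337 nm, ratio 520/490 nm ×10,000. IC50 from 4-parameter Hill fit of normalized data.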

KRas, sequence (P01116-2 other isoform, or with tags, fused parts or gaps): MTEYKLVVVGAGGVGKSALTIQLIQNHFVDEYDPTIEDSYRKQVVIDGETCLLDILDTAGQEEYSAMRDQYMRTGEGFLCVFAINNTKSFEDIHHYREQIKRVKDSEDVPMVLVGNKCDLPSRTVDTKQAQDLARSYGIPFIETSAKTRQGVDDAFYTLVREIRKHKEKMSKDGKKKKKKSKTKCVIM
KRas(G12V), sequence (P01116-2 other isoform, or with tags, fused parts or gaps G12V): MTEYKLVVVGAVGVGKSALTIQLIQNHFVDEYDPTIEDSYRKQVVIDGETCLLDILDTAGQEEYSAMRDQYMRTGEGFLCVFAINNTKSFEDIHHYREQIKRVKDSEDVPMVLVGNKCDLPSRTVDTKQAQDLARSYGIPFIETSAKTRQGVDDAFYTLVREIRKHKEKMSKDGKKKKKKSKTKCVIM

| Structure (SMILES) | IC50 [1] | IC50 [2] |
| --- | --- | --- |
| Cc1cc(N)nc(-c2cc3ncnc4c3c(c2Cl)OCCN4Cc2cncc(N)c2)c1C(F)(F)F [Example 3, 6-(4-((5-aminopyridin-3-yl)methyl)-8-chloro-5,6-dihydro-4H-[1,4]oxazepino[5,6,7-de]quinazolin-9-yl)-4-methyl-5-(trifluoromethyl)pyridin-2-amine] | 540 nM | 2900 nM |
| Cc1cc(N)nc(-c2cc3ncnc4c3c(c2Cl)OCCN4[C@@H](C)c2cncc(N)c2)c1C(F)(F)F [Example 4, (S)-6-(4-(1-(5-aminopyridin-3-yl)ethyl)-8-chloro-5,6-dihydro-4H-[1,4]oxazepino[5,6,7-de]quinazolin-9-yl)-4-methyl-5-(trifluoromethyl)pyridin-2-amine] | 1400 nM | 10000 nM |
| Cc1cc(N)nc(-c2c(Cl)c3c4c(nc(OC[C@@H]5CCCN5C)nc4c2F)N([C@H](C)c2cccnc2N)CCO3)c1C(F)(F)F (atropisomer, axis not shown) [Example 127, 6-((R)-4-((R)-1-(2-aminopyridin-3-yl)ethyl)-8-chloro-10-fluoro-2-(((S)-1-methylpyrrolidin-2-yl)methoxy)-5,6-dihydro-4H-[1,4]oxazepino[5,6,7-de]quinazolin-9-yl)-4-methyl-5-(trifluoromethyl)pyridin-2-amine] | 0.07 nM | 0.0894 nM |
| COCCN1CCC(Oc2nc3c4c(c(Cl)c(-c5nc(N)cc(C)c5C(F)(F)F)c(F)c4n2)OCCN3[C@H](C)c2cccnc2N)CC1 (atropisomer, axis not shown) [Example 126, 6-((R)-4-((R)-1-(2-aminopyridin-3-yl)ethyl)-8-chloro-10-fluoro-2-((1-(2-methoxyethyl)piperidin-4-yl)oxy)-5,6-dihydro-4H-[1,4]oxazepino[5,6,7-de]quinazolin-9-yl)-4-methyl-5-(trifluoromethyl)pyridin-2-amine] | 0.34 nM | 2.87 nM |
| Cc1cc(N)nc(-c2cc3ncnc4c3c(c2Cl)OCCN4Cc2ccnnc2N)c1C(F)(F)F [Example 56, 4-((9-(6-amino-4-methyl-3-(trifluoromethyl)pyridin-2-yl)-8-chloro-5,6-dihydro-4H-[1,4]oxazepino[5,6,7-de]quinazolin-4-yl)methyl)pyridazin-3-amine] | 22 nM | 160 nM |
| Cc1cc(N)nc(-c2cc3ncnc4c3c(c2Cl)OCCN4C(C)CO)c1C(F)(F)F (centres unmarked) [Example 16, 2-(9-(6-amino-4-methyl-3-(trifluoromethyl)pyridin-2-yl)-8-chloro-5,6-dihydro-4H-[1,4]oxazepino[5,6,7-de]quinazolin-4-yl)propan-1-ol] | 6900 nM | 32000 nM |
| Cc1cc(N)nc(-c2cc3ncnc4c3c(c2Cl)OCCN4C(C)c2cnc[nH]2)c1C(F)(F)F (centres unmarked) [Example 15, 6-(4-(1-(1H-imidazol-5-yl)ethyl)-8-chloro-5,6-dihydro-4H-[1,4]oxazepino[5,6,7-de]quinazolin-9-yl)-4-methyl-5-(trifluoromethyl)pyridin-2-amine] | 3600 nM | 31000 nM |
| CNc1cncc(CN2CCOc3c(Cl)c(-c4nc(N)cc(C)c4C(F)(F)F)cc4ncnc2c34)c1 [Example 6, 6-(8-chloro-4-((5-(methylamino)pyridin-3-yl)methyl)-5,6-dihydro-4H-[1,4]oxazepino[5,6,7-de]quinazolin-9-yl)-4-methyl-5-(trifluoromethyl)pyridin-2-amine] | 1300 nM | 6300 nM |
| Cc1cc(N)nc(-c2cc3ncnc4c3c(c2Cl)OCCN4Cc2cc(Cl)cnc2N)c1C(F)(F)F [Example 52, 6-[13-[(2-amino-5-chloro-3-pyridyl)methyl]-8-chloro-10-oxa-2,4,13-triazatricyclo[7.4.1.05,14]tetradeca-1,3,5(14),6,8-pentaen-7-yl]-4-methyl-5-(trifluoromethyl)pyridin-2-amine] | 2400 nM | 9600 nM |
| Cc1cc(N)nc(-c2cc3nc(OCC4(C)CS(=O)(=O)C4)nc4c3c(c2Cl)OCCN4Cc2cccnc2N)c1C(F)(F)F [Example 55, 3-(((9-(6-amino-4-methyl-3-(trifluoromethyl)pyridin-2-yl)-4-((2-aminopyridin-3-yl)methyl)-8-chloro-5,6-dihydro-4H-[1,4]oxazepino[5,6,7-de]quinazolin-2-yl)oxy)methyl)-3-methylthietane 1,1-dioxide] | 19 nM | 130 nM |

Next, values leading:

| IC50 [1] | IC50 [2] | Structure (SMILES) |
| --- | --- | --- |
| 0.09 nM | 0.201 nM | Cc1cc(N)nc(-c2c(Cl)c3c4c(nc(OC[C@@H]5CC[C@H]6CO[C@@H](C)CN56)nc4c2F)N([C@H](C)c2cccnc2N)CCO3)c1C(F)(F)F (atropisomer, axis not shown; (aS)) [Example 93a, 6-((R)-4-((R)-1-(2-aminopyridin-3-yl)ethyl)-8-chloro-10-fluoro-2-(((3S,6S,8aS)-3-methylhexahydro-1H-pyrrolo[2,1-c][1,4]oxazin-6-yl)methoxy)-5,6-dihydro-4H-[1,4]oxazepino[5,6,7-de]quinazolin-9-yl)-4-methyl-5-(trifluoromethyl)pyridin-2-amine] |
| 0.06 nM | 0.07 nM | Cc1cc(N)nc(-c2c(Cl)c3c4c(nc(OC[C@@]56CCCN5C[C@H](F)C6)nc4c2F)N([C@H](C)c2cc(F)cnc2N)CCO3)c1C(F)(F)F (atropisomer, axis not shown; (aS)) [Example 130a, 6-((R)-4-((R)-1-(2-amino-5-fluoropyridin-3-yl)ethyl)-8-chloro-10-fluoro-2-(((2R,7aS)-2-fluorotetrahydro-1H-pyrrolizin-7a(5H)-yl)methoxy)-5,6-dihydro-4H-[1,4]oxazepino[5,6,7-de]quinazolin-9-yl)-4-methyl-5-(trifluoromethyl)pyridin-2-amine] |
| 0.19 nM | 0.469 nM | Cc1cc(N)nc(-c2c(Cl)c3c4c(nc(OC[C@@]56CCCN5CCOC6)nc4c2F)N([C@H](C)c2cccnc2N)CCO3)c1C(F)(F)F (atropisomer, axis not shown) [Example 128b, 6-((R)-4-((R)-1-(2-aminopyridin-3-yl)ethyl)-8-chloro-10-fluoro-2-(((S)-tetrahydro-1H-pyrrolo[2,1-c][1,4]oxazin-8a(6H)-yl)methoxy)-5,6-dihydro-4H-[1,4]oxazepino[5,6,7-de]quinazolin-9-yl)-4-methyl-5-(trifluoromethyl)pyridin-2-amine] |
| 1200 nM | 6500 nM | Cc1cc(N)nc(-c2c(Cl)c3c4c(nc(OC[C@@]56CCCN5C[C@H](F)C6)nc4c2F)N(C)CCO3)c1C(F)(F)F (single isomer, unassigned) [Example 41b] |
| 97 nM | 680 nM | Cc1cc(N)nc(-c2c(Cl)c3c4c(nc(OC[C@@H]5CCCN5CC(F)F)nc4c2F)N([C@H](C)c2nccnc2N)CCO3)c1C(F)(F)F (atropisomer, axis not shown) [Example 158b, 3-((R)-1-((S)-9-(6-amino-4-methyl-3-(trifluoromethyl)pyridin-2-yl)-8-chloro-2-(((S)-1-(2,2-difluoroethyl)pyrrolidin-2-yl)methoxy)-10-fluoro-5,6-dihydro-4H-[1,4]oxazepino[5,6,7-de]quinazolin-4-yl)ethyl)pyrazin-2-amine] |
| 0.32 nM | 0.39 nM | Cc1cc(N)nc(-c2c(Cl)c3c4c(nc(OC[C@H]5CC[C@@H]6CN(CC(F)(F)F)CCN56)nc4c2F)N([C@H](C)c2cccnc2N)CCO3)c1C(F)(F)F (atropisomer, axis not shown; (aR)) [Example 129b, 6-((R)-4-((R)-1-(2-aminopyridin-3-yl)ethyl)-8-chloro-10-fluoro-2-(((6R,8aR)-2-(2,2,2-trifluoroethyl)octahydropyrrolo[1,2-a]pyrazin-6-yl)methoxy)-5,6-dihydro-4H-[1,4]oxazepino[5,6,7-de]quinazolin-9-yl)-4-methyl-5-(trifluoromethyl)pyridin-2-amine] |
| 0.07 nM | 0.125 nM | Cc1cc(N)nc(-c2c(Cl)c3c4c(nc(OC[C@@H]5C[C@H]6COCCN65)nc4c2F)N([C@H](C)c2cccnc2N)CCO3)c1C(F)(F)F (atropisomer, axis not shown) [Example 99a, 6-((R)-2-(((6S,8S)-4-oxa-1-azabicyclo[4.2.0]octan-8-yl)methoxy)-4-((R)-1-(2-aminopyridin-3-yl)ethyl)-8-chloro-10-fluoro-5,6-dihydro-4H-[1,4]oxazepino[5,6,7-de]quinazolin-9-yl)-4-methyl-5-(trifluoromethyl)pyridin-2-amine] |
| 0.12 nM | 0.484 nM | Cc1cc(N)nc(-c2c(Cl)c3c4c(nc(OC[C@@H](C)N5CCOCC5)nc4c2F)N([C@H](C)c2cccnc2N)CCO3)c1C(F)(F)F (atropisomer, axis not shown) [Example 95b, 6-((R)-4-((R)-1-(2-aminopyridin-3-yl)ethyl)-8-chloro-10-fluoro-2-((R)-2-morpholinopropoxy)-5,6-dihydro-4H-[1,4]oxazepino[5,6,7-de]quinazolin-9-yl)-4-methyl-5-(trifluoromethyl)pyridin-2-amine] |
| 0.08 nM | 0.0748 nM | Cc1cc(N)nc(-c2c(Cl)c3c4c(nc(OC[C@H]5C[C@@H]6COCCN65)nc4c2F)N([C@H](C)c2cccnc2N)CCO3)c1C(F)(F)F (atropisomer, axis not shown) [Example 99b, 6-((R)-2-(((6R,8R)-4-oxa-1-azabicyclo[4.2.0]octan-8-yl)methoxy)-4-((R)-1-(2-aminopyridin-3-yl)ethyl)-8-chloro-10-fluoro-5,6-dihydro-4H-[1,4]oxazepino[5,6,7-de]quinazolin-9-yl)-4-methyl-5-(trifluoromethyl)pyridin-2-amine] |
